Results from publication PMC7939467, “Ascertaining the biochemical function of an essential pectin methylesterase in the gut microbe Bacteroides thetaiotaomicron” (The Journal of Biological Chemistry, 2021).
Read-outs that look alike come from different tables or passages of the source.

Legend:
BT1017-CM = target: T1, BT1017-CM (Bacteroides thetaiotaomicron, UniProt Q8A900); test: coupled spectrophotometric methanol release assay; type: biochemical; settings: 1.7 μM enzyme, pH and temperature not given (optimum pH 8.5, 37 °C), read-out: BT1017 constructs / BT1017-CM
T1 construct: gene BT_1017; crystal model residues 20-462 (text also gives module as 20-400); C-terminal His6; E. coli Tuner(DE3)
T1 sequence (Q8A900 20-462): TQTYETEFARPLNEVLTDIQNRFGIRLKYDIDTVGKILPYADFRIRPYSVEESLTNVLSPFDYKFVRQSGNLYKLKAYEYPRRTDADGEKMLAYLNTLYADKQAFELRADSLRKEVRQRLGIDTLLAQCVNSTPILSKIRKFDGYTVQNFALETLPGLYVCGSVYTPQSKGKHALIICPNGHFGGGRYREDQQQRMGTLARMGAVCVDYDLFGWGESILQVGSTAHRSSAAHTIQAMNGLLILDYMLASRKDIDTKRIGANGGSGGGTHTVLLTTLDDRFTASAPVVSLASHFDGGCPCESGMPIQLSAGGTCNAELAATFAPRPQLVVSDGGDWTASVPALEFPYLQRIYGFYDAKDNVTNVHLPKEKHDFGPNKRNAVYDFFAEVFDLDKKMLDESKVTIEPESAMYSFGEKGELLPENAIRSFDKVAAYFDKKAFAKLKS
Source text: coupled spectrophotometric methanol release assay on BT1017-CM

BT1017-SP = target: T2, BT1017-SP (Bacteroides thetaiotaomicron, UniProt Q8A900); test: coupled spectrophotometric methanol release assay; type: biochemical; settings: 1.7 μM enzyme, read-out: BT1017 constructs / BT1017-SP
T2 construct: gene BT_1017
T2 sequence (Q8A900 21-653): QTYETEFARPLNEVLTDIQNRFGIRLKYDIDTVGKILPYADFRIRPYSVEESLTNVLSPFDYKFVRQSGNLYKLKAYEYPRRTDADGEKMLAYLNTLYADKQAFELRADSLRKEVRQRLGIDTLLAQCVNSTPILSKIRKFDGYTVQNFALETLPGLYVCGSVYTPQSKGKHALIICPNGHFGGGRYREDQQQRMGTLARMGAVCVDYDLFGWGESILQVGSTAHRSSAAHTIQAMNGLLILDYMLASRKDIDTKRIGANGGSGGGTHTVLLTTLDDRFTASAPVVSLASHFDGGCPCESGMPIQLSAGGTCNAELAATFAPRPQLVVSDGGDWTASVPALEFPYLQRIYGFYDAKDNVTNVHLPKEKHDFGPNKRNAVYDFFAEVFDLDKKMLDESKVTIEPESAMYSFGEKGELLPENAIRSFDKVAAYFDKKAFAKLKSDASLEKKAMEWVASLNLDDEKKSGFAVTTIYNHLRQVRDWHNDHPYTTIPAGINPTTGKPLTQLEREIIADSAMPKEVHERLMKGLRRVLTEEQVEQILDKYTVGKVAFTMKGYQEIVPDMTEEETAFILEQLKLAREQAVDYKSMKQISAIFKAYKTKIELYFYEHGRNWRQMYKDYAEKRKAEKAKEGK
Source text: coupled spectrophotometric methanol release assay on BT1017-SP

| Substance | Km (BT1017-CM; 0.046–1.38 mM substrate) [µM] | Km (BT1017-SP; 0.046–1.38 mM substrate, pH and temperature of the kinetics not stated (optimum pH 8.5, 37 °C)) [µM] | Km (BT1017-CM; 0.09–3.47 mM substrate) [µM] | Km (BT1017-SP; 0.09–3.47 mM substrate, pH and temperature not given (optimum pH 8.5, 37 °C)) [µM] |
| --- | --- | --- | --- | --- |
| GlcA-β1,4-(2-O-Me-Xyl-α1,3)-Fuc-α1,4-(GalA-β1,3)-Rha-α1,3-Api-β1,2-(Araf-α1,3)-(GalA-α1,4)-GalA [ΔBT1017oligoB] | 400 ± 70 | 200 ± 30 | – | – |
| Rha-α1,3-Api-β1,2-(Araf-α1,3)-(6-O-Me-GalA-α1,4)-GalA [ΔBT1017oligoA] | – | – | 1000 ± 200 | 3000 ± 400 |
